Assay results from US12521393B2, “Cytotoxicity targeting chimeras for CCR2-expressing cells” (GLAXOSMITHKLINE INTELLECTUAL PROPERTY DEVELOPMENT LIMITED, priority 2021, dated 2026).

Tests used:
[1] = system: endogenous target monocytes in human PBMC; assay: PBMC ex vivo monocyte depletion flow cytometry assay (Example 200); type: cell-based; settings: with anti-cotinine antibody (SEQ ID NO: 11/12), 18-24 hours, EC50 in molar, read-out: Ex Vivo Depletion Assay pEC50 (converted)
Summary of the method: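 Monocyte depletion is reported as pEC50, averaged or given individually across runs, and read by flow cytometry staining CD45, CD14 and CD4 with a viability dye. Compounds, diluted four-fold over 11 points from 1 mM DMSO stocks, were combined with 30 μg/mL Fc-enhanced anti-cotinine antibody and human PBMC, then incubated 18-24 h at 37° C.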

[2] = biological target: human alpha1 nicotinic acetylcholine (nACh) receptor (Homo sapiens, UniProt P02708); assay: Nicotinic acetylcholine receptor antagonism assay, IONFlux automated patch clamp (Example 203); type: cell-based; settings: for IC50: antagonism of ACh-stimulated human alpha1 nAChR current, patch clamp; for Emax at 100 µM: maximum percentage antagonism at maximum concentration tested 100 μM
Summary of the method: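 Cells expressing human α1 nAChR were incubated with a compound dose response (top 10 μM or 100 μM), then stimulated with ACh (10 mM), and peak current was read by automated patch clamp. % inhibition was taken against ACh-alone control, corrected for vehicle and run-down, and fit non-linearly for IC50; runs were averaged.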

human alpha1 nicotinic acetylcholine (nACh) receptor, sequence (P02708 21-457): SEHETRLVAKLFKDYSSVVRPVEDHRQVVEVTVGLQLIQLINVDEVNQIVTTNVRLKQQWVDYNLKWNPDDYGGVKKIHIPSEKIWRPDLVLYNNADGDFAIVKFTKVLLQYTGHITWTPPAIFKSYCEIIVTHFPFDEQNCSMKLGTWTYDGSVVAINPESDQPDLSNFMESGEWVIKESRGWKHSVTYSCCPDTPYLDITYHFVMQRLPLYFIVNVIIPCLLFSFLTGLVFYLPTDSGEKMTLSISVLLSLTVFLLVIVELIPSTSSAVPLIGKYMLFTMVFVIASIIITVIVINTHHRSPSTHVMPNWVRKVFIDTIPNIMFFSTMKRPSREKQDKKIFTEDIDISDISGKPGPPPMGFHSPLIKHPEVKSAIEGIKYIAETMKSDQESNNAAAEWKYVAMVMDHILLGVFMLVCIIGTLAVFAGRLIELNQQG
human alpha1 nicotinic acetylcholine (nACh) receptor, sequence (P11230 24-501 partner): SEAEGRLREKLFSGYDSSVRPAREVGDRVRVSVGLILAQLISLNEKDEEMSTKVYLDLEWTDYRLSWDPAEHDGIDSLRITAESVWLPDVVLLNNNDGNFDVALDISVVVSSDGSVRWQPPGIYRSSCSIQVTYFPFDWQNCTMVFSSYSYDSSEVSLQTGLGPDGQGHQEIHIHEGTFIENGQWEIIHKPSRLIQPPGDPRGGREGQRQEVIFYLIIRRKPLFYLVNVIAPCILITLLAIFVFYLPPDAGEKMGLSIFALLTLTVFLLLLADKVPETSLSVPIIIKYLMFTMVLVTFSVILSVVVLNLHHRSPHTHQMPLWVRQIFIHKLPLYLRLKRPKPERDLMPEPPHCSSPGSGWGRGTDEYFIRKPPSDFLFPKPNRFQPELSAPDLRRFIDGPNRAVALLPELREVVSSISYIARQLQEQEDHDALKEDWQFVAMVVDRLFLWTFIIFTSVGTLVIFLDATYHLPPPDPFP
human alpha1 nicotinic acetylcholine (nACh) receptor, sequence (Q07001 22-517 partner): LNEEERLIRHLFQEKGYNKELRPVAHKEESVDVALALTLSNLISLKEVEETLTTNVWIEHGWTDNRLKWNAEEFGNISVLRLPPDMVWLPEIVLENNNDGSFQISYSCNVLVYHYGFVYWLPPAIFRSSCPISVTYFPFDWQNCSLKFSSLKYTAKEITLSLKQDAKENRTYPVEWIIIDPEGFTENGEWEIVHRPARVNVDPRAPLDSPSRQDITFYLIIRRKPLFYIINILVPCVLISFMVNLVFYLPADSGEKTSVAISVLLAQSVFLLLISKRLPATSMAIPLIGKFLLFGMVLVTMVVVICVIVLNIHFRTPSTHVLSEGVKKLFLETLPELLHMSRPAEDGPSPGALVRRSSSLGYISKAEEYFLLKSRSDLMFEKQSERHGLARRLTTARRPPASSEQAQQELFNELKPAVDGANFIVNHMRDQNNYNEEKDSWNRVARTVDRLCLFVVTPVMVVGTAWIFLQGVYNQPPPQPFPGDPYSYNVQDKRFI

`CC(C)N(C)[C@@H]1CC[C@H](N2CC[C@H](Nc3ncnc4ccc(C(F)(F)F)cc34)C2=O)[C@H](NC(=O)[C@H]2CC[C@@H](NC(=O)CCOCCNC(=O)CCNC(=O)CCNC(=O)[C@H]3CC(=O)N(C)[C@@H]3c3cccnc3)CC2)C1` [Example 182, (2S,3S)-N-(3-((3-((2-(3-(((1S,4s)-4-(((1R,2S,5R)-5-(Isopropyl(methyl)amino)-2-((S)-2-oxo-3-((6-(trifluoromethyl)quinazolin-4-yl)amino)pyrrolidin-1-yl)cyclohexyl)carbamoyl)cyclohexyl)amino)-3-oxopropoxy)ethyl)amino)-3-oxopropyl)amino)-3-oxopropyl)-1-methyl-5-oxo-2-(pyridin-3-yl)pyrrolidine-3-carboxamide] showed an EC50 [1] of 0.158 nM, an IC50 [2] of 76400 nM and an Emax at 100 µM ([2]; read-out: Maximum Response) of 61.9%.
Work on `CC(C)N(C)[C@@H]1CC[C@H](N2CC[C@H](Nc3ncnc4ccc(C(F)(F)F)cc34)C2=O)[C@H](NC(=O)CCOCCC(=O)N[C@H]2C[C@@H](C(=O)NCCOCCNC(=O)[C@H]3CC(=O)N(C)[C@@H]3c3cccnc3)C2)C1` [Example 186, (2S,3S)-N-(2-(2-((1S,3R)-3-(3-(3-(((1R,2S,5R)-5-(Isopropyl(methyl)amino)-2-((S)-2-oxo-3-((6-(trifluoromethyl)quinazolin-4-yl)amino)pyrrolidin-1-yl)cyclohexyl)amino)-3-oxopropoxy)propanamido)cyclobutane-1-carboxamido)ethoxy)ethyl)-1-methyl-5-oxo-2-(pyridin-3-yl)pyrrolidine-3-carboxamide] yielded an EC50 [1] of 0.316 nM, an IC50 [2] of 31800 nM and an Emax at 100 µM ([2]; read-out: Maximum Response) of 55.2%.
`CC(C)N(C)[C@@H]1CC[C@H](N2CC[C@H](Nc3ncnc4ccc(C(F)(F)F)cc34)C2=O)[C@H](NC(=O)CCOCCC(=O)N[C@H]2C[C@H](C(=O)NCCOCCNC(=O)[C@H]3CC(=O)N(C)[C@@H]3c3cccnc3)C2)C1` [Example 187] showed an EC50 [1] of 0.251 nM, an IC50 [2] of 71100 nM and an Emax at 100 µM ([2]; read-out: Maximum Response) of 63.7%.
With `CN1C(=O)C[C@H](C(=O)NCCOCCNC(=O)[C@H]2C[C@H](NC(=O)CCOCCC(=O)N[C@@H]3C[C@H](NC(C)(C)C)CC[C@@H]3N3CC[C@H](Nc4ncnc5ccc(C(F)(F)F)cc45)C3=O)C2)[C@H]1c1cccnc1` [Example 188, (2S,3S)-N-(2-(2-((1R,3S)-3-(3-(3-(((1R,2S,5R)-5-(tert-butylamino)-2-((S)-2-oxo-3-((6-(trifluoromethyl)quinazolin-4-yl)amino)pyrrolidin-1-yl)cyclohexyl)amino)-3-oxopropoxy)propanamido)cyclobutane-1-carboxamido)ethoxy)ethyl)-1-methyl-5-oxo-2-(pyridin-3-yl)pyrrolidine-3-carboxamide] the EC50 [1] was 0.316 nM, the IC50 [2] was 85900 nM and the Emax at 100 µM ([2]; read-out: Maximum Response) was 53.5%.
`CC(C)N(C)[C@@H]1CC[C@H](N2CC[C@H](Nc3ncnc4ccc(C(F)(F)F)cc34)C2=O)[C@H](NC(=O)CCCN2CCC3(CCN(CCCNC(=O)[C@H]4CC(=O)N(C)[C@@H]4c4cccnc4)CC3)CC2)C1` [Example 191, (2S,3S)-N-(3-(9-(4-(((1R,2S,5R)-5-(Isopropyl(methyl)amino)-2-((S)-2-oxo-3-((6-(trifluoromethyl)quinazolin-4-yl)amino)pyrrolidin-1-yl)cyclohexyl)amino)-4-oxobutyl)-3,9-diazaspiro[5.5]undecan-3-yl)propyl)-1-methyl-5-oxo-2-(pyridin-3-yl)pyrrolidine-3-carboxamide] showed an EC50 [1] of 0.501 nM, an IC50 [2] of 2950 nM and an Emax at 10 µM ([2]; maximum percentage antagonism at maximum concentration tested 10 μM, read-out: Maximum Response) of 74%.
In the case of `CC(C)N(C)[C@@H]1CC[C@H](N2CC[C@H](Nc3ncnc4ccc(C(F)(F)F)cc34)C2=O)[C@H](NC(=O)[C@H]2CC[C@H](C(=O)NCCCOCCCCOCCCNC(=O)[C@H]3CC(=O)N(C)[C@@H]3c3cccnc3)CC2)C1` [Example 194, (1r,4R)-N^1-((1R,2S,5R)-5-(Isopropyl(methyl)amino)-2-((S)-2-oxo-3-((6-(trifluoromethyl)quinazolin-4-yl)amino)pyrrolidin-1-yl)cyclohexyl)-N^4-(3-(4-(3-((2S,3S)-1-methyl-5-oxo-2-(pyridin-3-yl)pyrrolidine-3-carboxamido)propoxy)butoxy)propyl)cyclohexane-1,4-dicarboxamide], the EC50 [1] is reported as 0.631 nM, the IC50 [2] is reported as ≥ 100000 nM and the Emax at 100 µM ([2]; read-out: Maximum Response) is reported as 44.9%.
